Assay results published in patent US6989138B2, “Stabilization of radiopharmaceutical compositions using hydrophilic thioethers and hydrophilic 6-hydroxy chromans” (Diatide, Inc., priority 2000, dated 2006).

Assay: Radiochemical purity (RCP) of 99mTc-depreotide kits with gentisic acid, reversed phase HPLC
Type: physicochemical
Settings: when included in formulated kits
Procedure: Lyophilized kit vials were prepared containing depreotide, GA, and other components as described in Table 1. Formulations were adjusted to pH 7.4 or 8.5 (as noted) prior to lyophilization.

O=C(O)c1cc(O)ccc1O [gentisic acid, Gentisic acid]
effect on radiolabelling yield and stability of 99mTc-depreotide: decreases the radiolabelling yield and the stability
